Measurements published in patent publication US20240398822A1, “METHODS AND COMPOSITIONS FOR TREATING AND MANAGING ALZHEIMER'S DISEASE” (Pharmatrophix, Inc., priority 2021, published 2024).
“Also recorded” adds a separate entry of the source. Where two headings read alike, the source gives them in different places.

Legend:
[1] = Phase I (1b) systemic pharmacokinetics, 600 mg b.i.d. for 10 days; assay type: in vivo, human; details: for Cmax: human, plasma, po, 600 mg, 600 mg b.i.d. oral, 8 subjects, read-out: Cmax, systemic, arithmetic mean
Experimental: A phase 1b studied was conducted in 10 elderly normal subjects for the purpose of obtaining plasma and CSF coordinated drug levels and to further assess safety at a dose of 600 mg bid over a 10-day period. The study was double-blinded and placebo controlled with 8 subjects receiving drug.

neurogranin = assay: Phase IIa CSF post-synaptic biomarker neurogranin (NG-36); assay type: in vivo, human
From the text: (§1) CSF samples were obtained at screening Visit and final Visit via lumbar puncture to determine levels of tau, p-tau, Aβ40, Aβ42 and AChE activity as an initial set of CSF biomarkers. Aliquots of CSF were made available for emerging CSF biomarker methods such as measurement of additional biomarkers including neurofilaments light chain, neurogranin, SNAP-25, synaptotagmin, YKL-40, TREM2, tau oligomers and for measurement of drug level in selected patients based on the time period between last dose of drug and CSF sampling (FIG. 25 and FIG. 58).
(§2) Baseline CSF samples are obtained prior to administration via lumbar puncture. These samples are used to determine levels of tau, p-tau, Aβ40, Aβ42, AChE, neurofilament light chain, SNAP-25, synaptotagmin-1, neurogranin, sTREM, and YKL-40. Aliquots of CSF are also made available for emerging CSF biomarker methods such as measurement of tau oligomers and for measurement of drug level in selected patients based on time period between last dose of the salt of Formula (II) and CSF sampling. […] Many of these biomarkers can also be measured in blood or plasma. The change in values over the time period from pre-treatment to post-treatment are of particular importance. […] Absolute levels at single time points of neurofilament light chain, SNAP-25, synaptotagmin-1, neurogranin, sTREM, and YKL-40 in CSF or blood or plasma are of less value given differences in assay techniques and wide variation in absolute levels within normal subjects and within and across AD subjects. In contrast, absolute levels of Aβ42 and 40 at baseline are useful biomarkers indicating the presence of amyloid pathology as low levels of Aβ42 and 40 at a given time point are consistent with amyloid pathology.

[2] = Phase 1 SAD/MAD pharmacokinetics; assay type: in vivo; details: in vivo
From the text: The phase 1 study was placebo controlled and double blinded and included 52 subjects in SAD studies and 20 subjects in MAD studies.

[3] = system: patients with mild to moderate Alzheimer's disease; assay: Phase IIa structural MRI (regions of interest and voxel-based whole brain analysis); assay type: in vivo, human
Experimental: Volumetric MRI is conduction at the first and final visits. Volumetric analyses of the whole brain, hippocampus and other regions of interest are conducted. Measures of regional volumes as determined by MRI are regarded as standard measures of brain degeneration that are known to occur in AD. Volumes of the lateral ventricles are also assessed. Increasing ventricular volume is a marker for a diffuse increase in brain atrophy. […] The following Regions of interest were investigated in the ITT population: MRI Volume of the lateral ventricles in mm3—longitudinal stream change, MRI Average volume of the hippocampus in mm3—longitudinal stream change, MRI Average Volume of the entorhinal cortex in mm3—longitudinal stream change, MRI Total brain volume in mm3 change. Baseline and final Visit MRI scan were used to measure interval changes in volumes. Various cortical regions such as the Cingulate cortex were also assessed. […] The identified brain regions are similar in distribution to those having been previously identified to be particularly vulnerable to degeneration in AD.
For this analysis, the drug treatment group contains subject treated with either 200 or 400 mg doses. […] FIGS. 46A-46C show group x time interaction patterns using T1-weighted structural MRI. Contrast estimate plots show the magnitude and direction of the interaction effects observed in the flexible factorial GLM. […] Therefore, if the actual observed ratio of t-values is close to equivalent in the input map at a given p and k threshold, the MCS ratio and p-value will tend to support the null hypothesis of no drug effect. […] Increased thickness is similar to increased volume and means less degeneration. Here increased gyrification means increased atrophy.

tau = assay: Phase IIa CSF total tau; assay type: in vivo, human
From the text: as §1, §2

Aβ42, Aβ40 = assay: Phase IIa CSF AD core biomarkers Aβ42 and Aβ40; assay type: in vivo, human
From the text: as §1, §2

sTREM2 = assay: Phase IIa CSF glial biomarker sTREM2; assay type: in vivo, human
From the text: as §1
Baseline CSF samples are obtained prior to administration via lumbar puncture. These samples are used to determine levels of tau, p-tau, Aβ40, Aβ42, AChE, neurofilament light chain, SNAP-25, synaptotagmin-1, neurogranin, sTREM, and YKL-40. Aliquots of CSF are also made available for emerging CSF biomarker methods such as measurement of tau oligomers and for measurement of drug level in selected patients based on time period between last dose of the salt of Formula (II) and CSF sampling. […] Many of these biomarkers can also be measured in blood or plasma. The change in values over the time period from pre-treatment to post-treatment are of particular importance. […]

## CC[C@H](C)[C@H](N)C(=O)NCCN1CCOCC1 [LM11A-31-BHS, Tris[(2S,3S)-2-amino-3-methyl-N-(2-morpholinoethyl)pentanamide] tetra(monohydrogensulfate), monosulfate]
[1]; 600 mg BID during 10 days
  linearity of pharmacokinetics: linear
[1]; day 1
  Cmax: 1270 ng/mL
[1]; day 10
  Cmax: 885 ng/mL
neurogranin; 200 mg dose versus placebo
  CSF neurogranin-36, drug dose analysis: significant lowering of NG-36
neurogranin; 400 mg dose versus placebo
  CSF neurogranin-36, drug dose analysis: trend for reduction
neurogranin; combined drug group, 6 months, p=0.02
  CSF neurogranin levels in the drug group: significant decrease
[2]; human
  food effect: fed subjects having a higher LM11A-31 parent exposure than fasted subjects
  time to reach steady state upon multiple dosing: approximately 5 days post dose
[2]
  gender difference in exposure: female subjects having a greater exposure than males
[2]; po
  pharmacokinetics after single oral doses: linear pharmacokinetics
[3]; anterior cingulate region area 33 prime
  cortical thickness and gyrification: drug effect on improving cortical thickness or decreasing gyrification
[3]; combined drug group, 6-month period, p=0.006
  hippocampal (HC) volume, sMRI: significant increase in HC volume
[3]; drug group, humans
  volume of the dentate gyrus: promotes increased volume of the dentate gyrus; also recorded: significant increase in the volume of the dentate gyrus
[3]; flexible factorial GLM, p<0.05 and cluster size >100
  voxel-wise T1-weighted structural MRI, loss of volume, dose analysis: significant effect at both the 200 and 400 mg doses in slowing loss of volume
[3]; treatment period
  volume loss in voxel-based whole brain MRI, drug versus placebo: slow volume loss in brain regions known to be particularly vulnerable to degeneration in AD
[3]; younger <72 years, older >=72 years
  voxel-wise structural MRI volume loss, age analysis: significant drug effect in both age groups
tau; 200 mg bid or 400 mg bid versus placebo
  CSF total tau, drug dose analysis: trends for lowering of total tau reduction, especially at the 400 mg dose
tau; annual percent change (APC), 6-month trial period
  drug effect in slowing or inhibiting the CSF tau increase, younger (<72 years) versus older (>=72 years): greater than that found in the older group
tau; combined drug group, 6 month treatment period, p=0.06
  effect compared to placebo in decreasing the elevation of CSF tau: near-significant effect
tau; combined drug group, 6 months, p=0.2 (placebo increase p=0.003)
  increase of CSF tau levels in the drug group: no longer detected at a significant level
Aβ42, Aβ40; combined drug group, 26 weeks, p=0.003
  CSF Ab 42 change in the drug group: went down by a significant amount
Aβ42, Aβ40; combined drug group, p=0.03
  CSF Ab 42, difference between placebo and drug: significant
Aβ42, Aβ40; daily treatment, CSF
  effect on levels of Aβ42 and 40: ability to lower levels of Aβ42 and 40
sTREM2; 200 and 400 mg doses
  CSF sTREM2, drug dose analysis: nominal reduction at the 200 and 400 mg doses
sTREM2; combined drug group, 6-month period
  CSF sTREM2, drug effect: no drug effect was detected
